Data on 22 compounds can be found in ChEMBL document CHEMBL5029181, “Synthesis and evaluation of potent novel inhibitors of human sulfide:quinone oxidoreductase” (Bioorg Med Chem Lett, 2021).

In brackets after ≈: the same amount, converted by molar mass.

The target in data set [1] is Sulfide:quinone oxidoreductase, mitochondrial (Homo sapiens, UniProt Q9Y6N5). The data set is described as follows: Inhibition of human SQOR.
Data set [2] is described as follows: Half life in mouse at 10 mg/kg, ip. It is filed as ADME, organism-based. The conditions noted are these: in vivo.
Data set [3] is described as follows: Protein binding in mouse plasma. It is filed as ADME, cell-free. The conditions noted are these: read-out: PPB (converted).
Data set [4] can be described thus: AUClast in mouse at 10 mg/kg, ip. The conditions noted are these: in vivo. Details: time 0 - last, route intraperitoneal, dose 10 mg/kg. It is filed as ADME, organism-based.
A short description of data set [5]: Aqueous solubility of the compound at pH 7. Particulars: buffer.
Data set [6] in a line: Permeability of the compound from basolateral to apical side in human Caco-2 cells. It is filed as ADME, cell-based. The conditions noted are these: read-out: permeability. Background: Caco-2 cells form a polarised layer with tight junctions and transporters.
Data set [7] in a line: Permeability of the compound from apical to basolateral side in human Caco-2 cells. It is filed as ADME, cell-based. Particulars: read-out: permeability.

Sequence of Sulfide:quinone oxidoreductase, mitochondrial (Q9Y6N5 whole entry): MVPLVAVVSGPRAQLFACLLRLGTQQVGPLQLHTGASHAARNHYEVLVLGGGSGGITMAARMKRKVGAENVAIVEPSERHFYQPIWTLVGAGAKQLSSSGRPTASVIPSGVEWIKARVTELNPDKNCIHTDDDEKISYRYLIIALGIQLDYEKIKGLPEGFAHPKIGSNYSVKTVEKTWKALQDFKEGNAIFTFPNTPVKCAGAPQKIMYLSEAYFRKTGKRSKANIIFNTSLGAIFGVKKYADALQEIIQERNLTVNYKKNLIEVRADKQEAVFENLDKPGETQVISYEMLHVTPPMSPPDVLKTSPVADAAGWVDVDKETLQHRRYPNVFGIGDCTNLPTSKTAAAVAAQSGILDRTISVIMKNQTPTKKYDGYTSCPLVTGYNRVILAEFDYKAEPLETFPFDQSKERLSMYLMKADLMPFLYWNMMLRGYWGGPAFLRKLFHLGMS

Take `COc1nc(-c2ccncc2)cc(-c2ccc(F)cc2)c1C#N`: half-maximal inhibition in data set [1] (IC50) required 17400 nM.

On to `COc1nc(-c2ccccc2)cc(-c2ccc(Cl)cc2Cl)c1C#N`, for which, in data set [1], the IC50 (commonly the concentration at which inhibition is half-maximal) is more than 100000 nM.

`N#Cc1c(-c2ccccc2)cc(-c2ccccc2)nc1OCc1ccccc1`: in data set [1], half-maximal inhibition (IC50) required 100 nM.

Turning to `C=CCOc1nc(-c2ccccn2)cc(-c2ccc(F)cc2)c1C#N`, in data set [1], inhibition was half-maximal at 5.5 nM (IC50).

In data set [1], `Cc1cccnc1-c1cc(-c2ccc(F)cc2)c(C#N)c(OCc2cccnc2)n1` came in with an IC50 of 36 nM.

For the compound `COc1ccccc1-c1cc(-c2ccc(F)cc2)c(C#N)c(OC)n1`, the IC50 in data set [1] stood at 75 nM.

`COc1nc(-c2cccnc2)cc(-c2ccc(F)cc2)c1C#N` gave an IC50 in data set [1] of 213 nM.

The compound `COc1nc(-c2ccccn2)cc(-c2ccc(F)cc2)c1C(N)=O` displayed an IC50 in data set [1] of 16200 nM.

For the compound `COc1nc2c(c(-c3ccccc3)c1C#N)Cc1ccccc1-2`, in data set [1], the IC50 came out at 2.1 nM.

As to `COc1nc(-c2ccccc2)cc(-c2ccncc2)c1C#N`, in data set [1], the concentration for half-maximal inhibition (IC50) amounted to 541 nM.

For `COc1ccc(-c2cc(-c3ccc(F)cc3)c(C#N)c(OC)n2)cc1`, the IC50 in data set [1] stood at 1360 nM.

Turning to `COCCOc1nc(-c2ccccc2)cc(-c2ccc(F)cc2)c1C#N`, 123 nM corresponded to half-maximal inhibition in data set [1] (IC50).

With `COc1nc(C(C)(C)C)cc(-c2ccc(F)cc2)c1C#N`, in data set [1], the IC50 was 153 nM.

Compound `CCSc1nc(-c2ccccc2)cc(-c2ccccc2)c1C#N` yielded an IC50 in data set [1] of 132 nM.

Compound `COc1nc(-c2ccccc2)cc(-c2ccc(Cl)cc2)c1C#N` yielded an IC50 in data set [1] of 252 nM.

`COc1cccc(-c2cc(-c3ccc(F)cc3)c(C#N)c(OC)n2)c1`: the IC50 in data set [1] came out at 108 nM.

`COc1nc(-c2ncccc2C)cc(-c2ccc(N)cc2)c1C#N`: in data set [2], the half-life (in general, how long it takes for the measured level to halve) was 1.13 h. For the same compound, the fraction unbound in data set [3] is 0.022. The AUC(0-t) (in general, the area under the concentration-time curve up to a stated or last time point) in data set [4] is 1080 ng·h/mL.

On to `COc1nc(-c2ncccc2C)cc(-c2ccc(F)cc2)c1C#N`, for which the half-life in data set [2] was 5.96 h. In data set [1], this compound came in with an IC50 of 8.7 nM. Moreover, the fraction unbound in data set [3] is 0.0036. Moreover, the solubility (in general, the concentration that dissolves in the medium under given conditions) in data set [5] was 0.013 µM (≈ 4.15 ng/mL). In addition, in data set [6], the Papp B→A was determined as 0.769 ×10⁻⁶ cm/s. The Papp A→B in data set [7] came out at 0.455 ×10⁻⁶ cm/s. This compound showed an AUC(0-t) in data set [4] of 42 ng·h/mL.

For the compound `COc1nc(-c2ccccc2)cc(-c2ccc(F)cc2)c1C#N`, in data set [1], the IC50 came to 25 nM.

`COc1nc(-c2ccccn2)cc(C(C)(C)C)c1C#N` gave an IC50 in data set [1] of 850 nM.

Consider `COc1nc(-c2ccccn2)cc(-c2ccc(F)cc2)c1C#N`, for which the IC50 in data set [1] stood at 14 nM.

Take `COc1nc(-c2ccccc2)cc(-c2ccccc2)c1C#N`: in data set [1], the IC50 was found to be 53 nM.
